The source of these data is DBAASP.

SMILES strings stand for the structures. Values after ≈ are worked out from the molar mass of the structure shown. Values joined by “and” are separate entries in the source; they are usually repeats but may differ in a detail not shown here. Equal values may be shown once.

Some test systems named below: Listeria ivanovii; Saccharomyces cerevisiae; Aerococcus viridans; Alternaria brassicicola; Ascochyta pisi; Bacillus megaterium; Bacillus subtilis; Botrytis cinerea; Escherichia coli D22; Escherichia coli D31; Fusarium culmorum; Fusarium haematococcum; Micrococcus luteus; Neurospora crassa; Pediococcus acidilactici; Salmonella typhimurium; Trichoderma viride; Klebsiella pneumoniae; Streptococcus agalactiae; Streptococcus mutans; Streptococcus pyogenes; Bacillus subtilis PS832; Escherichia coli DL7; Escherichia coli MG1655.

Holding throughout (test): ≥ marks a high value that may be exact or a test limit, other limits are often not marked, values filed in µg/mL are converted to µM
Experiment [1] concerns Mycobacterium tuberculosis CSU87.
Experiment [2] concerns Mycobacterium tuberculosis H37Rv.
Experiment [3] concerns Acinetobacter baumannii ATCC 19606.
The test system of experiment [4] is Candida albicans ATCC 90028.
The test system of experiment [5] is Candida parapsilosis ATCC 22019.
Experiment [6] deals with Enterococcus faecalis ATCC 29212.
Experiment [7] concerns Escherichia coli ATCC 25922.
In experiment [8] the test system is Klebsiella pneumoniae ATCC 13883.
Experiment [9] relates to Pseudomonas aeruginosa ATCC 27853.
Experiment [10] concerns Staphylococcus aureus ATCC 25923.
Experiment [11] relates to Staphylococcus aureus ATCC BAA-44.
Experiment [12] concerns Streptococcus pyogenes ATCC 19615.
The subject of experiment [13] is Bacillus subtilis BGSC 1A1.
Experiment [14] concerns Mycobacterium tuberculosis mc2-6020.
The test system of experiment [15] is Mycobacterium tuberculosis mc2-6230.
In experiment [16] the test system is Streptococcus pneumoniae ATCC 49619.
Experiment [17] deals with Streptococcus mutans UA159.
For experiment [18], the system named is Streptococcus sanguinis ATCC 10556.
Experiment [19] has as its system Streptococcus sobrinus ATCC 6715.
Experiment [20] concerns Escherichia coli MG1655 ΔrecA.
The test system of experiment [21] is Klebsiella aerogenes ATCC 13048.
For experiment [22], the system named is Staphylococcus epidermidis ATCC 12228.

For orientation: MIC means the lowest concentration that inhibits growth of the organism. On to `CC(C)C[C@H](NC(=O)[C@H](CC(C)C)NC(=O)[C@H](CCCCN)NC(=O)[C@H](CCCCN)NC(=O)[C@H](CC(C)C)NC(=O)[C@H](CC(C)C)NC(=O)[C@@H](N)CS)C(=O)N[C@@H](CCCCN)C(=O)N[C@@H](CCCCN)C(N)=O` [CLLKKLLKK], for which the MIC in experiment [1] and in [2] was ≥ 460 µM in each case.
Take `CC[C@H](C)[C@H](NC(=O)[C@H](CCCN=C(N)N)NC(=O)[C@H](CO)NC(=O)[C@H](CC(C)C)NC(=O)[C@H](Cc1ccccc1)NC(=O)[C@H](CO)NC(=O)[C@@H](N)Cc1ccccc1)C(=O)N[C@@H](Cc1ccccc1)C(N)=O` [FSFLSRIF]: the MIC in [3] is > 100 µM; in experiment [4], ≥ 100 µM; in [5], ≥ 100 µM; in experiment [6] it was > 100 µM; in experiment [7], 100 µM (≈ 102 µg/mL); in experiment [8], ≥ 100 µM. Moreover, the minimum inhibitory concentration (MIC) was ≥ 100 µM in the experiment on Listeria ivanovii; > 100 µM in experiment [9]; 25 µM (≈ 25.4 µg/mL) with Saccharomyces cerevisiae; > 100 µM in experiment [10]; ≥ 100 µM in experiment [11]; ≥ 50 µM in experiment [12].
For the compound `CC[C@H](C)[C@H](NC(=O)[C@@H](NC(=O)[C@@H]1CCCN1C(=O)[C@@H](NC(=O)[C@@H]1CCCN1C(=O)[C@H](CCCCN)NC(=O)[C@H](CCCCN)NC(=O)[C@H](CO)NC(=O)CN)C(C)C)[C@@H](C)CC)C(=O)N[C@@H](Cc1ccc(O)cc1)C(=O)N[C@H]1CSSC[C@@H](C(=O)N[C@@H](CCC(N)=O)C(=O)N[C@@H](CCCN=C(N)N)C(=O)O)NC(=O)[C@H](CCCCN)NC(=O)CNC(=O)[C@H]([C@@H](C)O)NC(=O)[C@H](CCCN=C(N)N)NC(=O)[C@H](CCCN=C(N)N)NC(=O)[C@H](CC(N)=O)NC1=O` [GSKKPVPIIYCNRRTGKCQR], the MIC came to 3.54 µM (≈ 8.14 µg/mL) against Aerococcus viridans; 7.07 µM (≈ 16.3 µg/mL) in the experiment with Alternaria brassicicola; 14.1 µM (≈ 32.6 µg/mL) against Ascochyta pisi; 3.54 µM (≈ 8.14 µg/mL) in the experiment on Bacillus megaterium; 28.3 µM (≈ 65.1 µg/mL) against Bacillus subtilis; 7.07 µM (≈ 16.3 µg/mL) against Botrytis cinerea. For the same compound, the MIC against Escherichia coli D22 is 28.3 µM (≈ 65.1 µg/mL); with Escherichia coli D31 it was 28.3 µM (≈ 65.1 µg/mL); against Fusarium culmorum it was 14.1 µM (≈ 32.6 µg/mL); against Fusarium haematococcum it was 3.54 µM (≈ 8.14 µg/mL); with Micrococcus luteus, 3.54 µM (≈ 8.14 µg/mL); with Neurospora crassa it was 7.07 µM (≈ 16.3 µg/mL). The values for the minimal inhibitory concentration (MIC) in the experiment on Pediococcus acidilactici, in the experiment with Salmonella typhimurium and with Trichoderma viride were 28.3 µM (≈ 65.1 µg/mL), 28.3 µM (≈ 65.1 µg/mL) and 14.1 µM (≈ 32.6 µg/mL), respectively.
As for `CC[C@H](C)[C@H](N)C(=O)N[C@@H](CC(C)C)C(=O)N[C@@H](CO)C(=O)N[C@@H](CC(C)C)C(=O)N[C@@H](CCCN=C(N)N)C(=O)N[C@@H](Cc1c[nH]c2ccccc12)C(=O)N[C@@H](Cc1c[nH]c2ccccc12)C(=O)N[C@@H](CCCN=C(N)N)C(=O)N[C@@H](CCCCN)C(=O)N[C@@H](Cc1c[nH]c2ccccc12)C(=O)N[C@@H](Cc1c[nH]c2ccccc12)C(=O)N[C@@H](CCCCN)C(=O)N[C@@H](CCCCN)C(=O)O` [ILSLRWWRKWWKK], the minimal inhibitory concentration (MIC) is 4 µM (≈ 7.55 µg/mL) in [13]; 16 µM (≈ 30.2 µg/mL) in [7]; 136 µM (≈ 257 µg/mL) in the experiment on Klebsiella pneumoniae; 16 µM (≈ 30.2 µg/mL) in experiment [14]; ≥ 32 µM in experiment [15]; 32 µM (≈ 60.4 µg/mL) in [9]. Also, the minimum inhibitory concentration (MIC) in experiment [10] came out at 32 µM (≈ 60.4 µg/mL); against Streptococcus agalactiae it was 8 µM (≈ 15.1 µg/mL); with Streptococcus mutans it was 4 µM (≈ 7.55 µg/mL); in experiment [16], 16 µM (≈ 30.2 µg/mL); against Streptococcus pyogenes, 2 µM (≈ 3.77 µg/mL).
As to `NCCCC[C@H](NC(=O)[C@H](CCCCN)NC(=O)[C@H](Cc1ccccc1)NC(=O)[C@H](Cc1ccccc1)NC(=O)[C@H](CCCCN)NC(=O)[C@H](CCCCN)NC(=O)[C@H](Cc1ccccc1)NC(=O)[C@H](Cc1ccccc1)NC(=O)[C@@H](N)CCCCN)C(=O)N[C@@H](Cc1c[nH]c2ccccc12)C(=O)O` [KFFKKFFKKW], the minimal inhibitory concentration (MIC) was ≥ 357 µM in experiment [17], ≥ 357 µM in experiment [18] and ≥ 179 µM in experiment [19].
As for `CC(C)C[C@H](NC(=O)CNC(=O)[C@H](C)NC(=O)[C@@H](N)CCCN=C(N)N)C(=O)N[C@@H](CCC(N)=O)C(=O)N[C@@H](Cc1ccccc1)C(=O)N1CCC[C@H]1C(=O)N[C@H](C(=O)NCC(=O)N[C@@H](CCCN=C(N)N)C(=O)N[C@H](C(=O)N[C@@H](Cc1cnc[nH]1)C(=O)N[C@@H](CCCN=C(N)N)C(=O)N[C@@H](CC(C)C)C(=O)N[C@@H](CC(C)C)C(=O)N[C@@H](CCCN=C(N)N)C(=O)N[C@@H](CCCCN)C(N)=O)C(C)C)C(C)C` [RAGLQFPVGRVHRLLRK], the MIC against Bacillus subtilis PS832 is 8 µM (≈ 16 µg/mL); in the experiment on Escherichia coli DL7, ≥ 32 µM and 16 µM; in experiment [20], ≥ 32 µM; against Escherichia coli MG1655 it was ≥ 64 µM; in [21], ≥ 64 µM; in experiment [2] it was ≥ 300 µM. For the same compound, the MIC in experiment [22] was 8 µM (≈ 16 µg/mL); in experiment [16], ≥ 300 µM.
